Results on one compound are retold here after US20080254439A1, “Plant Extract and Use Thereof as a Cryoprotective Agent” (priority 2005, published 2008).

Data set [1] has as its system CYP2B. The experiment in a line: PROD assay after 24 h induction with benzo-a-pyrene in cryopreserved hepatocytes. The class given is cell-based, rat. The note with it: 48 h after seeding, FIG. 5A. The method, then: (§1) Enzymatic activity and protein expression of cytochrome P450 isoforms. CYP1A1 and 2B enzymatic activities were measured in hepatocyte cultures induced with benzo-a-pyrene (10 μM). Cells were washed 2 times with PBS and the substrates EROD (8 μM) or PROD (17 μM) (λexc: 530 nm; λem: 585 nm) were added to the culture dishes and incubated for 1 h. The supernatant (300 μl) was mixed with 200 μl of ETOH and the activity in 200 μl of the mixture was measured using an ELISA reader at 585 nm. Enzymatic activity was determined using a standard curve ranging from 0 to 200 μM of resorufin.

For data set [2], the system named is rat hepatocytes. Put plainly: Plating efficiency by LDH activity. The note with it: culture period 3 hours. It is filed as cell-based. Here is the method:
Thawing of cryopreserved hepatocytes. The frozen hepatocytes were thawed quickly by gentle agitation in a 37° C. water bath. Viability assays were performed on the hepatocyte suspension. For adherence and metabolic assays, the hepatocyte suspension was diluted 10-fold by addition of cold WME medium, immediately after thawing. […] After centrifugation (4° C., 50 g, 2 min), hepatocytes were suspended in 10 ml of WME medium. Hepatocytes were washed twice as above, then suspended at 3.5×10^5/ml in WME and cultured in tissue culture plates in WME medium supplemented with insulin and gentamicin in a humidified atmosphere of 5% CO2 and 95% air at 37° C. After 3 h, the medium was changed and cells were incubated overnight in L-15 medium supplemented with insulin and gentamicin. Plating efficiency. Plating efficiency was determined by measuring the LDH activity in cells prior to seeding and in 3 and 24 h-old cultures. Plating efficiency was defined as the LDH activity in 24 h-old cultures divided by the LDH activity in pre-culture cells.

Data set [3] deals with rat hepatocytes. The experiment in a line: Adherence and cellular morphology by confocal microscopy. The note with it: 24 h after seeding, FIG. 3. It is filed as cell-based. The method, then:
Adherence and cellular morphology. Adherence and cellular morphology were evaluated by confocal microscopy. For the confocal microscopy observations, tissue culture plates coated with collagen were used. All analyses were carried out using the confocal microscope MRC1024 from BioRad (Microscience, Cambridge, Mass.) equipped with an argon laser (excitation at 488 nm) combined with an inverted microscope Eclipse Model TE 3000 (Nikon, Montreal, QC) with objectives of 40× Hoffman.

The subject of data set [4] is rat hepatocytes. Put plainly: Albumin secretion by sandwich ELISA. The note with it: after 4 days in culture; FIG. 4A. The class given is cell-based. (In general: In an ELISA, binding on a coated surface is turned into a signal by an enzyme label.)
Experimental: Determination of albumin secretion. Albumin secretion from hepatocytes was quantified every 24 h, until 96 h, in different hepatocyte culture media by the sandwich enzyme-linked immunosorbent assay (ELISA) according to Uotila et al. (19), with minor modifications (20). Briefly, 96-well plates (Nunc, Napierville, Ill.) were coated with anti-rat albumin rabbit antiserum (1 μg/ml). The plates were incubated for 30 min at room temperature (RT), then at 4° C. overnight, washed with phosphate buffered saline (PBS), blocked for 30 min at RT with 5% FBS in PBS, and then rewashed with PBS. Serial dilutions of sample and albumin standard were added (200 μl/well). The plates were incubated for III at RT and washed with PBS supplemented with 0.05% Tween-20 (PBS-T). Thereafter, the secondary antibody (peroxidase-conjugated anti-rat albumin; 2 μg/ml) was added and the plates were incubated for 1 h at RT. After 3 washings with PBS-T, the plates were incubated with the substrate o-phenylendiamine (OPND) (0.1 M NaH2PO4, 1 mg/ml OPND, 0.4 μl/ml H2O2) for 30 min at RT in the dark. The reaction was stopped with 4 M H2SO4. Albumin concentrations were determined at 550 nm using a standard curve ranging from 0 to 250 ng/dl of rat albumin using an ELISA reader ([sequence]luor Plus™, Tecan, Calif.).
Data set [5] has as its system CYP1A1. Put plainly: EROD assay after 24 h induction with benzo-a-pyrene in cryopreserved hepatocytes. The class given is cell-based, rat. The conditions noted are these: 48 h after seeding, FIG. 5A. Here is the method: as §1
Data set [6] deals with isolated rat hepatocytes. Put plainly: Viability of suspensions of rat hepatocytes after freezing, calcein/PI test by flow cytometry. The class given is cell-based. The note with it: 7 days of freezing; 1.5×10^6 cells/ml; 20 mg protein/extract or 15% DMSO in WME; FIG. 1.
Experimental: Hepatocytes were isolated from male Sprague-Dawley rats (120-180 g), obtained from Charles River Canada (Saint-Constant, QC), in a two-step collagenase digestion technique (13; 14). […] Cell viability was evaluated by flow cytometry (FACScan™, Becton Dickinson, Oakville, ON) with 2 μM PI (16).
Cryopreservation of isolated hepatocytes. Immediately after isolation, the hepatocyte suspension was added to a mixture of ice-cold WME medium supplemented with 10% FBS and non-acclimated (NA) or CA wheat protein extracts (WPEs) in cold cryovials. […] The tubes containing cells were then frozen at a cooling rate of 1° C./min in a controlled freezing container (Nalgene, Rochester, N.Y.) to −80° C. for one day, and then transferred to liquid nitrogen.
Viability assays. After freeze/thaw cycles, hepatocyte suspensions were stained with the fluorescent probes 4 μM calcein and 2 μM PI in WME medium for 5 minutes. The samples were analyzed by flow cytometry (excitation at 488 nm) using a Becton Dickinson FACScan™. The number of live cells expressing green fluorescence of calcein and the number of dead cells expressing red fluorescence of PI were determined with Cell Quest™ software (Becton Dickinson, Oakville, ON).
Data set [7] has as its system rat hepatocytes. The experiment in a line: Viability of seeded thawed hepatocytes by LDH release. It is filed as cell-based. The conditions noted are these: after 24 h in culture; cryopreserved 7 days; FIG. 2.
Experimental: The frozen hepatocytes were thawed quickly by gentle agitation in a 37° C. water bath. Viability assays were performed on the hepatocyte suspension. For adherence and metabolic assays, the hepatocyte suspension was diluted 10-fold by addition of cold WME medium, immediately after thawing. A 30% isotonic Percoll centrifugation step was performed to remove dead cells when viability was lower than 80%. After centrifugation (4° C., 50 g, 2 min), hepatocytes were suspended in 10 ml of WME medium. […] After 3 h, the medium was changed and cells were incubated overnight in L-15 medium supplemented with insulin and gentamicin.
Lactate dehydrogenase (LDH) activity was determined in the medium of seeded hepatocytes as a measure of hepatocyte deterioration as described by Moldeus et al. (17). The hepatocyte culture medium was removed daily and the activity of the LDH released into the medium was quantified (18).
In data set [8] the test system is rat hepatocytes. Put plainly: Ammonium detoxification to urea (urea determination). It is filed as cell-based. The conditions noted are these: after 4 days in culture; FIG. 4B. Here is the method:
Urea determination. To evaluate the hepatocyte-mediated biotransformation of ammonia to urea, seeded hepatocytes were exposed to L-15 culture medium containing 10 mM NH4Cl. Samples of media were collected at the beginning and after 24 h intervals of exposure to ammonia, during 3 days. Urea concentration in the samples was measured calorimetrically using the urea nitrogen reagent set (BioTron Diagnostics, Hemet, Calif.) and an ELISA reader at 540 nm. Concentrations of urea were determined using a standard curve ranging from 0 to 45 mg/dl of urea. The results are presented as μg urea/10^6 cells.

For `C[S+](C)[O-]` [DMSO, dimethyl sulfoxide], the “Relative activity of P450 CYP2B compared to fresh hepatocytes” value in data set [1] is recorded as “decreased slightly”. The same compound yielded a Plating efficiency in data set [2] of 64.9 ± 1.7%. In addition, the Cell-to-cell contacts entry in data set [3] is listed as “no cell-cell contacts were detected”. Besides, in data set [4], the “Albumin secretory activity maintained” value came to 48%. Besides, the “Relative activity of P450 CYP1A1 compared to fresh hepatocytes” value in data set [5] is given as “decreased slightly”. The “Viability of rat hepatocytes after freezing” value in data set [6] is given as 62.5%. Besides, in data set [7], the “Viability (LDH) of thawed hepatocytes in culture” value came to 60.2%. The “Initial detoxification activity maintained (urea production)” value in data set [8] is recorded as 16%.
